# Assay results from article PMC6982354, “Promising New Inhibitors of Tyrosyl-DNA Phosphodiesterase I (Tdp 1) Combining 4-Arylcoumarin and Monoterpenoid Moieties as Components of Complex Antitumor Therapy” (International Journal of Molecular Sciences, 2019).
# Like-named read-outs stand apart in the source and are kept apart here.
# Tests used:
# Tdp1 [1] = biological target: T1, Tdp1 (Homo sapiens, UniProt Q9NUW8); assay: Real-time detection of Tdp1 activity (FAM/BHQ1 oligonucleotide biosensor); format: biochemical; details: Tdp1 inhibition, 6-point concentration response curve
# T1 construct: made in house
# T1 sequence (Q9NUW8 whole entry): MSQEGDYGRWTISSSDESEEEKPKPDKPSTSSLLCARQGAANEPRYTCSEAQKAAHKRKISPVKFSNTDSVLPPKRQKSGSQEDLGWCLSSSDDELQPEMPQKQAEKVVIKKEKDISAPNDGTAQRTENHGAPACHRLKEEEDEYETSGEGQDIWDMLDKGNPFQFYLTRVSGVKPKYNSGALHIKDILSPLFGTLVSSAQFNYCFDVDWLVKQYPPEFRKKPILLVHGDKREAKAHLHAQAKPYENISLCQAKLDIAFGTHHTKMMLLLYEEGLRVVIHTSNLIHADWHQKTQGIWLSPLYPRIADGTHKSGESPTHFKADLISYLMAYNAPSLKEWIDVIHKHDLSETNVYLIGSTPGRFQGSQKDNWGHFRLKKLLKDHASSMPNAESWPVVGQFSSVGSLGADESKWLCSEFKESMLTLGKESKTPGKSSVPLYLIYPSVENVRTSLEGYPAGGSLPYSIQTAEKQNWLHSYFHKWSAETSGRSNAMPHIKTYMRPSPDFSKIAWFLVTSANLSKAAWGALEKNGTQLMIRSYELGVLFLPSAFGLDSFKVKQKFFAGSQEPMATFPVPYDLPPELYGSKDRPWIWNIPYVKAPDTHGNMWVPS
# Description: A previously designed, real-time, hexadecameric oligonucleotide biosensor with 5(6)-carboxyfluorescein (FAM) at the 5′ end and fluorophore quencher BHQ1 (Black Hole Quencher-1) at the 3′-end was used to determine the inhibitory properties of the new compounds.
# Real-Time Detection of Tdp1 Activity. The Tdp1 activity measurements were carried out as described. […] Tdp1 inhibition was calculated by comparing the rate of increase in fluorescence in the presence of the compound to that of DMSO control wells. IC50 values were determined using a 6-point concentration response curve. The data were imported into the MARS Data Analysis 2.0 program (BMG LABTECH), and the slope during the linear phase (here data from 0 to 7 min) was calculated.
# [2] = biological target: T2, human Tdp1 (residues 149-608) (Homo sapiens, UniProt Q9NUW8); assay: Intrinsic tryptophan fluorescence quenching binding assay; details: Tdp1 10 µM, 20 mM Tris, 250 mM NaCl, pH 8; triplicate; read-out: dissociation constant (KD)
# T2 construct: human Tdp1 (residues 149-608); made in house; host or cells: Escherichia coli BL21 (DE3)
# T2 sequence (Q9NUW8 149-608): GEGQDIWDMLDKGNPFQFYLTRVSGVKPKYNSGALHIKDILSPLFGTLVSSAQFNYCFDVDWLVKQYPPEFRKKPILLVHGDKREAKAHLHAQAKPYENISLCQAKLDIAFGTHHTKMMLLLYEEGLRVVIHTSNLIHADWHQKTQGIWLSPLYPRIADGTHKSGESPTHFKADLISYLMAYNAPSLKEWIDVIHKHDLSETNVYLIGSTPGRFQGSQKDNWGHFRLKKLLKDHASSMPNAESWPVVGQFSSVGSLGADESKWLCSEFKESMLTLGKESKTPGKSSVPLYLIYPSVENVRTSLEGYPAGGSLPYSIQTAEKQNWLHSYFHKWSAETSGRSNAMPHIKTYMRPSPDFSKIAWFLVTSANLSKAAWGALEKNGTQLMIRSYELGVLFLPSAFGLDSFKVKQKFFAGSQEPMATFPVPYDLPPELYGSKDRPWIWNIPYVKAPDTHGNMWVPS
# Excerpt: Derivatives of nopol were the most complex compounds to synthesize and purify. Therefore, they were excluded from further consideration. Since we previously obtained contradictory results in in vivo experiments with the myrtenol derivative 2 (unpublished data), in this work, we decided to focus on geraniol derivatives for the in vivo studies. […] In addition to the activity assay that we reported above, we wanted to confirm the interactions between compound 3ba and Tdp1 before progressing to in vivo studies. Using an intrinsic tryptophan fluorescence quenching assay that we previously applied to study the binding interactions of Tdp1 and its inhibitors, we evaluated the binding of compound 3ba to recombinant Tdp1. Clear quenching of the Tdp1 intrinsic fluorescence was observed upon the addition of 3ba (Supplementary Figure S1). […]
# Binding Assay. […] Intrinsic protein fluorescence was measured using PerkinElmer EnSpire Multimode Reader. […] The excitation wavelength was 280 nm and the intrinsic fluorescence was measured at 350 nm. […] Dissociation constants (KD) were calculated using the following formula, that takes nonspecific binding into account. […]
# In this formula, I indicates changes in fluorescence intensity from the titration, Imax indicates the maximum fluorescence intensity change, [Lᴛ] is the titration ligand concentration, and Ns is the non-specific term. […]
# Krebs-2 carcinoma = assay: Influence on antitumor effect of tpc, Krebs-2 ascites tumor model; format: in vivo, mice; details: for weight of the ascitic tumor: compared to only tpc
# Description: A study of the influence of 3ba on the antitumor effect of tpc (topotecan) was performed using a murine Krebs-2 carcinoma model. An ascitic tumor model combines the advantages of in vitro and in vivo approaches in studying the cytotoxic effect of compounds, since ascitic cells grow in the context of the organism (in vivo), and the intraperitoneal administration of drug ensures its direct contact with tumor cells (in vitro). The experiments were performed using female C57BL/6 mice, which were injected intraperitoneally with 2 × 10^5 ascitic cells on day zero. The mice were divided into six groups of ten animals each.
# (§1) Lab animals. Thre-e to four-month-old male and female C57Bl/6 mice from the breeding colony of the Institute of Cytology and Genetics, SB RAS, were used in the study. The animals were kept on sawdust in plastic cages with 5–7 mice per cage, with free access to ground food (“Laboratorkorm”, Moskow, Russia) and tap water. All experiments were performed in accordance with protocols approved by the Animal Care and Use Committee of the Institute of Cytology and Genetics. Also, all experimental procedures were performed in accordance with the Directive 2010/63/EU for animal experiments.
# (§2) Tumor models. The experimental tumor used was Lewis Lung Carcinoma (LLC) and Krebs-2. The animals were treated with tpc and the Tdp1 inhibitor 3ba two days after tumor transplantation. The tumor was transplanted into the muscles of the thigh by 0.2 million cells per mouse. Tpc (Sindan Pharma SRL, Romania) was administered intraperitoneally at a single dose of 0.5 mg/kg; Tdp1 inhibitor 3ba was administrated intraperitoneally at a single dose of 20, 40, or 80 mg/kg (for Krebs-2), or 120 mg/kg (for LLC) in 15% dimethyl sulfoxide (DMSO)–10% Tween-80 suspension in water (0.2 mL of suspension per mouse) simultaneously with tpc. Control mice were injected with a DMSO-Tween-80 mixture into the stomach.
# (§3) Statistical analysis. The experimenter measuring and calculating the primary animal data (tumor size, lifespan) was blinded. After unblinding, the animal data were statistically processed using oneway ANOVA. Post-hoc testing was completed using Turkey’s Honestly Significant Difference (HSD). p < 0.05 was considered to be statistically significant. The statistical package […] version 12.5 was used for analysis. All results are expressed as mean ± SEM.
# Lewis carcinoma = assay: Lifespan of mice with ascites variant of Lewis carcinoma; format: in vivo; details: for increase in lifespan: tpc + 3ba 120 mg/kg
# Description: We then examined the effect of 3ba in combination with tpc on the lifespan of mice. C57BL/6 mice were intraperitoneally inoculated with the ascites variant of Lewis carcinoma. Group 1: control without treatment; group 2: tpc 0.5 mg/kg intraperitoneally; group 3: tpc and 3ba intraperitoneally 120 mg/kg; and group 4: 3ba 120 mg/kg only.
# as §1, §2, §3
# Tdp1 [3] = biological target: T1, Tdp1; design: method as in PMID 27658793; details: Tdp1 inhibition, Figure 1; cited from earlier work
# human cancer cells = tested on: human cancer cells; design: method as in PMID 27658793; details: compound in non-toxic doses; cited from earlier work
structure (smiles),measurement,setting,value
"CC(C)=CCC/C(C)=C/COc1ccc2c(-c3ccc(F)cc3)cc(=O)oc2c1 [3ba, (E)-7-(3,7-Dimethylocta-2,6-dienyloxy)-4-(4-fluorophenyl)-2H-chromen-2-one]",IC50,Tdp1 [1],0.62 µM
same,Kd,[2],63 ± 11 µM
same,weight of the ascitic tumor / tumor growth,Krebs-2 carcinoma; 3ba 20 mg/kg i.p. + tpc 0.5 mg/kg i.p. (group 5),did not affect tumor growth
same,weight of the ascitic tumor,Krebs-2 carcinoma; 3ba 40 mg/kg i.p. + tpc 0.5 mg/kg i.p. (group 4),"decrease in ascites weight, although the difference between groups 2 and 4 was not significant"
same,weight of the ascitic tumor,Krebs-2 carcinoma; 3ba 80 mg/kg i.p. + tpc 0.5 mg/kg i.p. (group 3),significant decrease
same,weight of the ascitic tumor / tumor growth,Krebs-2 carcinoma; 3ba 80 mg/kg i.p. in the absence of tpc (group 6),did not affect tumor growth
same,number of tumor cells in ascites,"Krebs-2 carcinoma; tpc 0.5 mg/kg + 3ba 80 mg/kg i.p. (group 3), only one mouse gave ascitic fluid",250 mln
same,prolongation of life,"Lewis carcinoma; monotherapy at selected doses (tpc 0.5 mg/kg or 3ba 120 mg/kg), unreliable, p > 0.05",13–19%
same,increase in lifespan,"Lewis carcinoma; compared with mice receiving only tpc, p = 0.0065",26%
same,increase in lifespan,"Lewis carcinoma; compared with the control group, p = 0.0002",42%
COc1cccc(COc2ccc3c4c(c(=O)oc3c2)CCCC4)c1 [compound 1],IC50,Tdp1 [3],5 µM
CC1(C)C2CC=C(COc3ccc4c5c(c(=O)oc4c3)CCC5)C1C2 (stereo not drawn) [compound 2],effect on the cytotoxic activity of CPT,human cancer cells,significantly increased
